Results on 7 molecules are retold here after patent US8377955B2, “Branched 3- and 6-substituted quinolines as CGRP receptors antagonists” (Merck, Sharp & Dohme, Corp., priority 2008, dated 2013).

The target in one assay is T1, Human CGRP receptor (Homo sapiens, UniProt O60894+Q16602).
T1 construct: expressed in transfected cells; membranes
As to the kind of experiment: Human CGRP receptor binding (125I-CGRP displacement). The protocol:
NATIVE RECEPTOR BINDING ASSAY: The binding of ^125I-CGRP to receptors in SK-N-MC cell membranes was carried out essentially as described (Edvinsson et al. (2001) Eur. J. Pharmacol. 415, 39-44). Briefly, membranes (25 μg) were incubated in 1 mL of binding buffer [10 mM HEPES, pH 7.4, 5 mM MgCl2 and 0.2% bovine serum albumin (BSA)] containing 10 pM ^125I-CGRP and antagonist. After incubation at room temperature for 3 h, the assay was terminated by filtration through GFB glass fibre filter plates (PerkinElmer) that had been blocked with 0.5% polyethyleneimine for 3 h. The filters were washed three times with ice-cold assay buffer (10 mM HEPES, pH 7.4 and 5 mM MgCl2), then the plates were air dried. Scintillation fluid (50 μL) was added and the radioactivity was counted on a Topcount (Packard Instrument). Data analysis was carried out by using Prism and the Ki was determined by using the Cheng-Prusoff equation (Cheng & Prusoff (1973) Biochem. Pharmacol. 22, 3099-3108).
RECOMBINANT RECEPTOR: Human CL receptor (Genbank accession number L76380) was subcloned into the expression vector pIREShyg2 (BD Biosciences Clontech) as a 5′NheI and 3′ PmeI fragment. Human RAMP1 (Genbank accession number AJ001014) was subcloned into the expression vector pIRESpuro2 (BD Biosciences Clontech) as a 5′NheI and 3′NotI fragment. HEK 293 cells (human embryonic kidney cells; ATCC #CRL-1573) were cultured in DMEM with 4.5 g/L glucose, 1 mM sodium pyruvate and 2 mM glutamine supplemented with 10% fetal bovine serum […], 100 units/mL penicillin and 100 μg/mL streptomycin, and maintained at 37° C. and 95% humidity. Cells were subcultured by treatment with 0.25% trypsin with 0.1% EDTA in HBSS. Stable cell line generation was accomplished by co-transfecting 10 μg of DNA with 30 μg Lipofectamine 2000 (Invitrogen) in 75 cm^2 flasks. CL receptor and RAMP1 expression constructs were co-transfected in equal amounts. Twenty-four hours after transfection the cells were diluted and selective medium (growth medium+300 μg/mL hygromycin and 1 μg/mL puromycin) was added the following day. A clonal cell line was generated by single cell deposition utilizing a FACS Vantage SE (Becton Dickinson). Growth medium was adjusted to 150 μg/mL hygromycin and 0.5 μg/mL puromycin for cell propagation.
RECOMBINANT RECEPTOR BINDING ASSAY: Cells expressing recombinant human CL receptor/RAMP1 were washed with PBS and harvested in harvest buffer containing 50 mM HEPES, 1 mM EDTA and Complete protease inhibitors (Roche). The cell suspension was disrupted with a laboratory homogenizer and centrifuged at 48,000 g to isolate membranes. The pellets were resuspended in harvest buffer plus 250 mM sucrose and stored at −70° C. For binding assays, 20 μg of membranes were incubated in 1 ml binding buffer (10 mM HEPES, pH 7.4, 5 mM MgCl2, and 0.2% BSA) for 3 hours at room temperature containing 10 pM ^125I-hCGRP (GE Healthcare) and antagonist. The assay was terminated by filtration through 96-well GFB glass fiber filter plates (PerkinElmer) that had been blocked with 0.05% polyethyleneimine. […]
[formula] Where Y is observed CPM bound, Ymax is total bound counts, Ymin is non specific bound counts, (Ymax−Ymin) is specific bound counts, % Imax is the maximum percent inhibition, % I min is the minimum percent inhibition, radiolabel is the probe, and the Kd is the apparent dissociation constant for the radioligand for the receptor as determined by Hot saturation experiments.

The test system of another assay is middle meningeal artery. To be noted: rats, electrical stimulation of the dura mater, prior administration (Williamson et al. 1997); cited from earlier work.
For assay [1], the system named is facial blood flow. As to conditions: rat, trigeminal ganglion stimulation (Escott et al. 1995); cited from earlier work.
Assay [2] has as its system acute attacks of migraine. To be noted: clinical trials (Olesen et al. 2004); cited from earlier work.
For assay [3], the system named is headache induced by CGRP infusion. As to conditions: control group (Petersen et al. 2005); cited from earlier work.
The subject of assay [4] is facial blood flow. To be noted: marmoset, electrical stimulation of the trigeminal ganglion (Dodds et al. 2000); cited from earlier work.
Where [5] appears, read: table of Examples 32-37, read-out: Ki.
[6] abbreviates: read-out: Human CGRP receptor binding Ki.

Like-named read-outs stand apart in the source and are kept apart here. No end group written: not given here.

T1 sequence (Q16602 23-461): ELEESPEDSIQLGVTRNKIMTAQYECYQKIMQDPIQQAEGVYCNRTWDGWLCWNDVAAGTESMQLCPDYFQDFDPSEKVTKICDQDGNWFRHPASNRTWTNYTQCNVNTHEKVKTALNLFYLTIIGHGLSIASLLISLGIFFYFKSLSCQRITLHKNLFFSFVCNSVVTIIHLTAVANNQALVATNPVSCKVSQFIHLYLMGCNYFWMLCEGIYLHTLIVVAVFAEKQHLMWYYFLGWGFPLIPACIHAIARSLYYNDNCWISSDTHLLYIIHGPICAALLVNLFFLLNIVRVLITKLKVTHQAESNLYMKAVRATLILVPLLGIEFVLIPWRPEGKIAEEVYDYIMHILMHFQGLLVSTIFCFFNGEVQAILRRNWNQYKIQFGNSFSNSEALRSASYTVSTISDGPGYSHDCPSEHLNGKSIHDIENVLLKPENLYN
T1 sequence (O60894 27-148): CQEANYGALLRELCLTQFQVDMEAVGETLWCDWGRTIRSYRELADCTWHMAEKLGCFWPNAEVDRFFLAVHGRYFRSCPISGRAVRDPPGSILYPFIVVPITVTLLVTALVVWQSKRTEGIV

In the case of `CC(C)(C)OC(=O)[C@H](NC(=O)c1cnc2cc3c(cc2c1)C[C@@]1(C3)C(=O)Nc2ncccc21)c1ccccc1` [Example 33], the Ki (as a rule, a dissociation constant, usually derived from enzyme kinetics or from competition with a known ligand) on Human CGRP receptor (setting [5]) was determined as 120 nM. Consider `CC(C)(C)OC(=O)[C@@H](NC(=O)c1cnc2cc3c(cc2c1)C[C@@]1(C3)C(=O)Nc2ncccc21)c1ccccc1` [Example 34], for which the Ki on Human CGRP receptor (setting [5]) was 140 nM. As for “CGRP (8-37): a peptide CGRP antagonist; fragment of CGRP that lacks seven N-terminal amino acid residues (VTHRLAGLLSRSGGVVKNNFVPTNVGSKAF; ends and bridges not checked; UniProt P06881 90-119, looked up, fragment)”, the “effect on increase in diameter of the middle meningeal artery” value in the assay with middle meningeal artery was “blocked”. For the same molecule, the “effect on increased facial blood flow” value with facial blood flow [1] was “inhibited”.

On to `CCOC(=O)CN(Cc1ccccc1)C(=O)c1cnc2cc3c(cc2c1)C[C@@]1(C3)C(=O)Nc2ncccc21` [Example 2, Ethyl(benzyl{[(7S)-2′-oxo-1′,2′,6,8-tetrahydrospiro[cyclopenta[g]quinoline-7,3′-pyrrolo[2,3-b]pyridin]-3-yl]carbonyl}amino)acetate], for which, at Human CGRP receptor (setting [6]), the Ki was found to be 60 nM.

`NCCCC[C@H](NC(=O)[C@@H](Cc1cc(Br)c(O)c(Br)c1)NC(=O)N1CCC(N2Cc3ccccc3NC2=O)CC1)C(=O)N1CCN(c2ccncc2)CC1` [BIBN4096BS]: the “efficacy in treating acute attacks of migraine” value in assay [2] is listed as “effective in treating acute attacks of migraine”. In addition, in assay [3], the “prevention of headache induced by CGRP infusion” value was “able to prevent headache induced by CGRP infusion”. The “effect on increase in facial blood flow” value with facial blood flow [4] is listed as “blocked”. Regarding `CC(C)(C)OC(=O)CC(NC(=O)c1cnc2cc3c(cc2c1)C[C@@]1(C3)C(=O)Nc2ncccc21)c1ccccc1` (stereo partly shown) [Example 36], the Ki on Human CGRP receptor (setting [5]) came out at 76 nM. As for `CC(c1cc(F)cc(F)c1)N(Cc1cnc2cc3c(cc2c1)C[C@@]1(C3)C(=O)Nc2ncccc21)C(=O)C1CCOCC1` (stereo in doubt) [Example 1, N-[(1R)-1-(3,5-Difluorophenyl)ethyl]-N-{[(7S)-2′-oxo-1′,2′,6,8-tetrahydrospiro-[cyclopenta[g]quinoline-7,3′-pyrrolo[2,3-b]pyridin]-3-yl]methyl}tetrahydro-2H-pyran-4-carboxamide], at Human CGRP receptor (setting [6]), the Ki was determined as 0.05 nM.
